Activity calls are given as the source filed them. Some results are limits rather than exact numbers.

In general, EC50 refers to the concentration at which the effect is half-maximal. As usually defined, the IC50 is the concentration that gives 50% inhibition. Broadly, the AC50 is the concentration at which the activity in the assay is half-maximal.

One assay has as its target Mu-type opioid receptor (Homo sapiens, UniProt P35372). The assay can be described thus: HTS Image-Based Screen for Agonists of the MOR Receptor. [Related pubchem assays (depositor defined):AID1777, AID1785, AID1786, AID2133]. Format: functional.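 Further: imaging of beta-arrestin GFP recruitment into spots after receptor activation.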
For assay [1], the target named is Kappa-type opioid receptor (Homo sapiens, UniProt P41145). Format: functional.
Chain of Kappa-type opioid receptor (P41145 whole entry): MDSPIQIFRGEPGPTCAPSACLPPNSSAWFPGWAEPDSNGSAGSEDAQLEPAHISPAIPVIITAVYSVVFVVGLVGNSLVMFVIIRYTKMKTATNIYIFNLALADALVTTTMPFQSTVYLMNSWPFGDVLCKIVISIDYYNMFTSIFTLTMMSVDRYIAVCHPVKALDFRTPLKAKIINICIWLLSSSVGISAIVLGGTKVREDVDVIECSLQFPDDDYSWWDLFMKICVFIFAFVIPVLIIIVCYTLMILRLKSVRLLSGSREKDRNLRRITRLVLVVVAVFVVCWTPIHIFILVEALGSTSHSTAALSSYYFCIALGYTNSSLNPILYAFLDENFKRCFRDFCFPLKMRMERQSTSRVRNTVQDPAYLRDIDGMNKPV
For another assay, the target named is Beta-galactosidase (Escherichia coli, UniProt Q8VNN2). Type of assay: functional.
Assay [2] is described as follows: Shn3 3'UTR reporter inhibitors, dose response, cell-based, Clone20 osteoblasts, firefly luciferase, cherry-picked (AID 624132).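 Further: firefly luciferase luminescence from reporter carrying the Shn3 3'UTR in osteoblasts.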 Type of assay: functional.
Assay [3] is described as follows: HepG2 cell cytotoxicity, dose response, cytotoxicity control for Shn3 inhibitor project, CellTiter-Glo, cherry-picked (AID 624134). Format: functional, cell-based.
Another assay deals with Paired box protein Pax-8 (Homo sapiens, UniProt Q06710). Briefly: inhibitors of PAX8-driven TPO luciferase reporter, dose response, RMG-I cells, cherry-pick (AID 687027).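 Further: luciferase reporter driven by Pax8 target thyroperoxidase promoter measured by SteadyGlo luminescence.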 Format: functional, cell-based. In general terms: A reporter such as luciferase makes a cellular process visible.
Chain of Paired box protein Pax-8 (Q06710 whole entry): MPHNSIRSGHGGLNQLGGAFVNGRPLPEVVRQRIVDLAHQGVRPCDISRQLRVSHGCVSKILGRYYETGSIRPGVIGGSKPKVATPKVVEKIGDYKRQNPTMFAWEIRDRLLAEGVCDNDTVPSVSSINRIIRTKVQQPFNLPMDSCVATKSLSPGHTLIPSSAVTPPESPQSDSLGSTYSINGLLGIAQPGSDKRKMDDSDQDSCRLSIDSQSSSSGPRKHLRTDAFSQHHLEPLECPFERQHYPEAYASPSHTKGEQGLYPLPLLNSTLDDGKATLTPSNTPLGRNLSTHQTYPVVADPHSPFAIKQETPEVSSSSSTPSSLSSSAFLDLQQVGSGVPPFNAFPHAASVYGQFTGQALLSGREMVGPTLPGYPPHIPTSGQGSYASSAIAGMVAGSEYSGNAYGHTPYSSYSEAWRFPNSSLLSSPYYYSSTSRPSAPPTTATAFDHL
For assay [4], the target named is Peroxisome proliferator-activated receptor gamma/Nuclear receptor corepressor 2 (Homo sapiens, UniProt P37231+Q9Y618). Format: functional.
Assay [5] can be described thus: cytotoxicity toward DRD oncogenic fibroblasts, dose response, cell-based, non-viral oncogenic, luminescence (AID 1934). Format: functional. Particulars: Homo sapiens.
Another assay deals with Perilipin-1/ABHD5 (Homo sapiens, UniProt O60240+Q8WTS1). Briefly: Luminescence-based biochemical high throughput dose response assay for inhibitors of the interaction of the lipase co-activator protein, abhydrolase domain containing 5 (ABHD5) with perilipin-1 (PLIN1) (2K validation set). [Related pubchem assays (depositor defined):AID493027, AID493057].
The nature of assay [6]: inhibitors of HIV Env-driven cell fusion, dose response, cherry-pick (AID 652057). Format: functional, cell-based.
The nature of assay [7]: off-target signal loss in HeLa-CEM21 co-culture – HeLa F-luc CTL cells, cherry-picked, counter-screen for HIV-1 Env fusion inhibitor project, dose response (AID 652040).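 Further: potency for signal decrease marking cytotoxic or nonspecific inhibition.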 Type of assay: functional, cell-based. In general terms: Counterscreens check selectivity or assay interference.
Assay [8] addresses 1-phosphatidylinositol 4,5-bisphosphate phosphodiesterase gamma-1 (Homo sapiens, UniProt P19174). Briefly: Counterscreen for inhibitors of phospholipase C isozymes (PLC-B3): Fluorescence-based biochemical high throughput dose response assay to identify inhibitors of phospholipase C isozymes (PLC-gamma1).
Assay [9] concerns the target T1, Sentrin-specific protease 7 (Homo sapiens, UniProt Q9BQF6).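 Further: Luminescence-based dose-response confirmation of ultra-high-throughput screening hits, measuring inhibition of SENP7.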
T1 sequence (Q9BQF6 whole entry): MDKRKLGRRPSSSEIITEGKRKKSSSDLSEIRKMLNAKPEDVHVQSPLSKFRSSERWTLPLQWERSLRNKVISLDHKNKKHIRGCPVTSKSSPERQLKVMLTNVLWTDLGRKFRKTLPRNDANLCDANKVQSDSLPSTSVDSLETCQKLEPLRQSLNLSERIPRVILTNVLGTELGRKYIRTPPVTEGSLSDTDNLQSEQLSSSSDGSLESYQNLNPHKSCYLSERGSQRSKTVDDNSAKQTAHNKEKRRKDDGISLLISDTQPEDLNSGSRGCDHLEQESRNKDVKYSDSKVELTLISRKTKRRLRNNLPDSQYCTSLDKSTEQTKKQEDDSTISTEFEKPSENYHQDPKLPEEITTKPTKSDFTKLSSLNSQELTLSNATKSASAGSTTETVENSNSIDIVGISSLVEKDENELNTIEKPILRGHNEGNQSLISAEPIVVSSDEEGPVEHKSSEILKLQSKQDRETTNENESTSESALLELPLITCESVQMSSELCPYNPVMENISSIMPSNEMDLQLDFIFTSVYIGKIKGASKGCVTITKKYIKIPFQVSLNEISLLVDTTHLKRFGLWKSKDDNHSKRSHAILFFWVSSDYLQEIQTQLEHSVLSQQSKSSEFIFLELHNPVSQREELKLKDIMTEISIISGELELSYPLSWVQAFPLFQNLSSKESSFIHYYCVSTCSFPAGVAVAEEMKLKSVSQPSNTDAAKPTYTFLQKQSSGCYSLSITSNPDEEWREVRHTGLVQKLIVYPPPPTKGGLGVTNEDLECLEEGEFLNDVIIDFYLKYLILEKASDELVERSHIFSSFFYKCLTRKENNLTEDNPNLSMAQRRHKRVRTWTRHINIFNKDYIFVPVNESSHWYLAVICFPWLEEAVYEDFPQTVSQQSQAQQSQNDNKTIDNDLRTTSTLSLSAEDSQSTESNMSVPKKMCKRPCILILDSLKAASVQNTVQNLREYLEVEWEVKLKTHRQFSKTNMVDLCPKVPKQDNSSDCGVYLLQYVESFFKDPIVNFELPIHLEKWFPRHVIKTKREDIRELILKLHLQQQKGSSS
Format: functional.

Assay [10] deals with T2, Sentrin-specific protease 8 (Homo sapiens, UniProt Q96LD8).
T2 sequence (Q96LD8 whole entry): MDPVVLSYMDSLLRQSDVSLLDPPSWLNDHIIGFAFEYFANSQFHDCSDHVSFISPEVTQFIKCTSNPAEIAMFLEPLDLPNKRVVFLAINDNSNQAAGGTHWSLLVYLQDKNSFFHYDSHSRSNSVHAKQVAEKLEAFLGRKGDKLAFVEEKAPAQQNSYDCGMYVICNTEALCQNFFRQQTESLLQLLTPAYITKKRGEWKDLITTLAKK
Format: functional.

Another assay deals with SUMO-activating enzyme (Homo sapiens, UniProt Q9UBT2). The assay can be described thus: SUMOylation inhibitor hit validation, confirmation, SUMOylation inhibitor project, biochemical, AlphaScreen (AID 2018). Format: functional.
Chain of SUMO-activating enzyme (Q9UBE0 whole entry): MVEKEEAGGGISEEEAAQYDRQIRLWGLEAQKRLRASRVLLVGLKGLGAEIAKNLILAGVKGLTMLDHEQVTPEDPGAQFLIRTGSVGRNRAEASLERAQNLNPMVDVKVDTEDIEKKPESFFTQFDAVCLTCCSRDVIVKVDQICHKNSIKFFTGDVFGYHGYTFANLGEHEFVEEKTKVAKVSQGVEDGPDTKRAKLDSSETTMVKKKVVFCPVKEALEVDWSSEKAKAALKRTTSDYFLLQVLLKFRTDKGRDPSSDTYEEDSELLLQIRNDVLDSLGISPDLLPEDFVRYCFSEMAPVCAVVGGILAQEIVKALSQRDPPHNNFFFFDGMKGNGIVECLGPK
Chain of SUMO-activating enzyme (Q9UBT2 whole entry): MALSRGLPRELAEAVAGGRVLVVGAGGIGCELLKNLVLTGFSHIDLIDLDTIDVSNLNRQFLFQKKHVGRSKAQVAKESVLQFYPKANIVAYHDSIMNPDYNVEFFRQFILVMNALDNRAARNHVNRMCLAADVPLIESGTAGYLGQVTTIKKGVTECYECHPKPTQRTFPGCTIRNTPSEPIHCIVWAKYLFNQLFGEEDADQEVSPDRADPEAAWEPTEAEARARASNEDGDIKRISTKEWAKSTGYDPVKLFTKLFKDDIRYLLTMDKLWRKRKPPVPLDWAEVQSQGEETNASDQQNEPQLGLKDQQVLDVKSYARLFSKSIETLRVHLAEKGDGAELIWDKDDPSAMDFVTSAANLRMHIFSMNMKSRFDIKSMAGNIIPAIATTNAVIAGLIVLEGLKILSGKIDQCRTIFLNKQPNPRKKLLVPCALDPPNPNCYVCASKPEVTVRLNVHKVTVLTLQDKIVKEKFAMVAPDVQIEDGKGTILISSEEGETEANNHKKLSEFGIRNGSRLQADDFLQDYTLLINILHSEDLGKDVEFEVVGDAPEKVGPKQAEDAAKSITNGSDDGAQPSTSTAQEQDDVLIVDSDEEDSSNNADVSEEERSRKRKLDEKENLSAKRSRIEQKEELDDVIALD
The target of assay [11] is T3, RNA-binding protein pos-1 (Caenorhabditis elegans, UniProt G5EF15).
T3 sequence (G5EF15 whole entry): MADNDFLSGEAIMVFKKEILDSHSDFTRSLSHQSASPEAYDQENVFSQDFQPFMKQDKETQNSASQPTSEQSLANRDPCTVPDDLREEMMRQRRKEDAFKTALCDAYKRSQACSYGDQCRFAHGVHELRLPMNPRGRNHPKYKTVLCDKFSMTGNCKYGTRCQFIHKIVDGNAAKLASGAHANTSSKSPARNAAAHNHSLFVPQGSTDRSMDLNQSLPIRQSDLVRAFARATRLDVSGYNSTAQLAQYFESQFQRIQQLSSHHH
The assay can be described thus: inhibitors of POS-1/mex-3 RNA binding, dose response, biochemical, fluorescence polarization (AID 1964).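 Further: purified POS-1 fused to maltose binding protein made in E. coli; potency of compounds blocking POS-1 binding to fluorescent RNA.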 Background: Polarisation of emitted light reports the rotation of a fluorescent probe.

The nature of assay [12]: Luminescence Cell-Based Dose Response HTS to Identify Inhibitors of 5'UTR Stem-Loop Driven Prion Protein mRNA Translation in H4 Neuroglioblastoma Cells. [Related pubchem assays: 1827 (Project Summary), 1813 (Primary HTS)]. Format: functional.
Assay [13] has as its target T2, Sentrin-specific protease 8. Type of assay: functional. This is another data set of the same source.
Another assay addresses Keap1/Nrf2 (Homo sapiens, UniProt Q14145). Briefly: Keap1-Nrf2 protein-protein interaction inhibitors, dose response, biochemical, fluorescence polarization, cherry-picked samples (AID 588683).

Chain of Keap1/Nrf2 (Q16236 whole entry): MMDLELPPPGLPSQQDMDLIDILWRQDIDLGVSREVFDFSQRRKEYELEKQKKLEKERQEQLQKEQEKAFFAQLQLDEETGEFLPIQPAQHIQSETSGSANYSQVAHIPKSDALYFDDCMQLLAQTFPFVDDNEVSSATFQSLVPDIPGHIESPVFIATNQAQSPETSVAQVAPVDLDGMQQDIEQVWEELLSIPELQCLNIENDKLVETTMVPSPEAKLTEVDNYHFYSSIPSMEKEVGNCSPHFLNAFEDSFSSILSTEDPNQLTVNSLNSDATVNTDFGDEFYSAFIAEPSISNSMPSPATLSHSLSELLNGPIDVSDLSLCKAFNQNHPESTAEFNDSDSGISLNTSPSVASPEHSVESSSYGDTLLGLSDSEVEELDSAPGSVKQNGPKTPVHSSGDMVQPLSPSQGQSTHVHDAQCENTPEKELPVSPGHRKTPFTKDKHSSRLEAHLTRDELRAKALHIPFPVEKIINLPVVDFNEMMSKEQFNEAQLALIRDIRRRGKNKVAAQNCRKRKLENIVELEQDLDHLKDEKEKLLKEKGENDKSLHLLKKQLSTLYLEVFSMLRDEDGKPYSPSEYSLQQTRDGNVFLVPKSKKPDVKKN
Chain of Keap1/Nrf2 (Q14145 whole entry): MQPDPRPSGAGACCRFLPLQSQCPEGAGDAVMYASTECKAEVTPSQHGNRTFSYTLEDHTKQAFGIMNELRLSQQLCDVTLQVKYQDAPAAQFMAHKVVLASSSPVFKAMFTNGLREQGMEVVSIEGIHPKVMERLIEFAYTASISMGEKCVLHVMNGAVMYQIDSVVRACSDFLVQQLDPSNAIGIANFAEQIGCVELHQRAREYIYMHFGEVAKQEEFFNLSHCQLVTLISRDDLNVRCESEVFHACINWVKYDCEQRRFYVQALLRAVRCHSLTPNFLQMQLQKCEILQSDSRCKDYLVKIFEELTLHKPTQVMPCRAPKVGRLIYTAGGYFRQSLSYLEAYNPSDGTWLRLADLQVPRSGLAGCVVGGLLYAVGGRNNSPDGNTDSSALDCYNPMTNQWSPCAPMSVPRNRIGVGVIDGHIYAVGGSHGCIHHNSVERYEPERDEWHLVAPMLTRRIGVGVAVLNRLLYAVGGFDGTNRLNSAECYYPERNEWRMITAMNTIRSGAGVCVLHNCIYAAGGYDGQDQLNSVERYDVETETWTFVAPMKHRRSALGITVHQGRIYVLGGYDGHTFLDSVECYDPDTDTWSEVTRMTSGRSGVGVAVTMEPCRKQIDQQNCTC
Chain of Mu-type opioid receptor (P35372 whole entry): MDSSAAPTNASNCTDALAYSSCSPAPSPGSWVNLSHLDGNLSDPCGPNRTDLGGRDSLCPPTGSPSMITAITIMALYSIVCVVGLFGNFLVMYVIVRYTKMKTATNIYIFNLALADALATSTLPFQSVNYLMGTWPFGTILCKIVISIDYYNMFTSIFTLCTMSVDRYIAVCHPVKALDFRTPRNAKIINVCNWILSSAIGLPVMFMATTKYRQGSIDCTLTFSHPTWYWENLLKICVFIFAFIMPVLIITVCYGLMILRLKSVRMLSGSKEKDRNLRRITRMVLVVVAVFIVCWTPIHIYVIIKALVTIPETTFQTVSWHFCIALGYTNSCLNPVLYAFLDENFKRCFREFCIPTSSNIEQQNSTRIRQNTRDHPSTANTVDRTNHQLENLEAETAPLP
Chain of 1-phosphatidylinositol 4,5-bisphosphate phosphodiesterase gamma-1 (P19174 whole entry): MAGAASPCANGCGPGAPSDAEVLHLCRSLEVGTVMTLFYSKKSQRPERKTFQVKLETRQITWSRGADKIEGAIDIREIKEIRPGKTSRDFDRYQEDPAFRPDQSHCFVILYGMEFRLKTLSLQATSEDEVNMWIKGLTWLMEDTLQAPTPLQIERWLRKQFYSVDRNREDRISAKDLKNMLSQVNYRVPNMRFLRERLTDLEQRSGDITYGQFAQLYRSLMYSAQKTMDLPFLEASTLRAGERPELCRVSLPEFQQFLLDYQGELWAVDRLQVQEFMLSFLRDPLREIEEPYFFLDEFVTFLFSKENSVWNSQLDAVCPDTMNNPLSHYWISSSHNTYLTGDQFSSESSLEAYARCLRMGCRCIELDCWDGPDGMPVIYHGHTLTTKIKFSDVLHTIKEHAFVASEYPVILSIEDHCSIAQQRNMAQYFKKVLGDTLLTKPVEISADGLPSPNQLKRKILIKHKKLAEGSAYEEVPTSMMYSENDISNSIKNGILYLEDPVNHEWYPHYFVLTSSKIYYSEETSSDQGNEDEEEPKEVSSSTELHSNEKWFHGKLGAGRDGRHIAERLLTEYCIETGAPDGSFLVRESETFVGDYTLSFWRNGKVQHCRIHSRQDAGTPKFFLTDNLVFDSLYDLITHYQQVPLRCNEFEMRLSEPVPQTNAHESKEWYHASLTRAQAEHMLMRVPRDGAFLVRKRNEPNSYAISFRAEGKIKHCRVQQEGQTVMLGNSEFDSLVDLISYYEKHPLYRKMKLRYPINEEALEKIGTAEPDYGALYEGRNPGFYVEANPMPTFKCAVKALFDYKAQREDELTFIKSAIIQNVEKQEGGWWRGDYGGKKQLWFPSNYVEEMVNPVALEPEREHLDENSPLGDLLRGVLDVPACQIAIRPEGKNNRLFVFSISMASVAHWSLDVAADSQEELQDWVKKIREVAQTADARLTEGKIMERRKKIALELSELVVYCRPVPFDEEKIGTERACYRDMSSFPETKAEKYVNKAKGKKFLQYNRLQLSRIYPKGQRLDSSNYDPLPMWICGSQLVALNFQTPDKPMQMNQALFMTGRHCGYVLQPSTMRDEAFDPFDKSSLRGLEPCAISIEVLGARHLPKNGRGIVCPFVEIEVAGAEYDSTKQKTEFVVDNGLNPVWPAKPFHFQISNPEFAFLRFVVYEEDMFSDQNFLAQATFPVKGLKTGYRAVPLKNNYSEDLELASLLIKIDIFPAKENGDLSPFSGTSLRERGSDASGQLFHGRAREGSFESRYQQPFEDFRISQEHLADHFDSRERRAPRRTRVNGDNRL

With `CCC(=O)OCCNc1cc(Sc2nccn2C)c2nonc2c1[N+](=O)[O-]`, the values for the EC50 at Mu-type opioid receptor and at Beta-galactosidase were > 32 µM (inactive) and > 31.5 µM (inactive), respectively. Further, the IC50 in assay [1] is 4.05 µM (active). Moreover, the figures for the half-maximal activity concentration (AC50) (in assay [2]; in [3]; on Paired box protein Pax-8) were 1.55 µM (active), 16.1 µM (active) and 7.53 µM (active), respectively.

On to `O=C1C(=O)c2ccccc2-c2ccccc21` [9,10-PHENANTHRENEQUINONE], for which the concentration for half-maximal inhibition (IC50) is 1.84 µM (active) in assay [4], 12.3 µM (inactive) on Perilipin-1/ABHD5 and 6.37 µM (active) in assay [8]. In [5], the concentration for a half-maximal effect (EC50) was 4.95 µM (inconclusive). Moreover, the AC50 was 4.53 µM (active) in [6] and 3.04 µM (active) in assay [7].

In the case of `CCc1ccc(OCC(=O)N/N=C2\CC(=O)c3ccccc32)cc1`, the IC50 in [9] was > 100 µM (inactive); in assay [10] it was 8.49 µM (active).

As to `CCCCn1c(NC(=O)c2ccccc2Cl)c(C#N)c2nc3ccccc3nc21`, the figures for the half-maximal inhibitory concentration (IC50) (on SUMO-activating enzyme; in [9]; in assay [10]) were 0.89 µM (active), 2.96 µM (active) and 1.99 µM (active), respectively.

As to `O=C1c2cc(F)ccc2-n2c1nc1ccccc1c2=O`, the EC50 in assay [11] is recorded as > 300 µM (not active); in [12] it was > 120 µM (not active). For the same compound, the IC50 in assay [13] is 0.985 µM (active).

On to `COCCCNC(=O)c1ccc2c3c(onc13)-c1ccccc1C2=O`, for which the EC50 in assay [5] is 8.59 µM (active). Moreover, the half-maximal activity concentration (AC50) on Keap1/Nrf2 is 1.73 µM (active).

The values are drawn from ChEMBL document CHEMBL1201862, “PubChem BioAssay data set” (2004).
